Values after ≈ are worked out from the molar mass of the structure shown. Like-named read-outs stand apart in the source and are kept apart here.
How the values were obtained:
[1] = Plasma pharmacokinetics of FN-1501 and metabolite M3 in patients (LC/MS-MS, noncompartmental); assay type: in vivo, human; conditions: for AUClast / AUC∞ / CL / Cmax / MRT∞ / Vss / Vz / t1/2 / tmax: mean; for Clearance: discussion; for Css,u: 260 mg
Protocol: For PK assessment, blood samples were collected pre-dose and 0.083, 0.25, 0.5, 1, 2, 4, 6, 8, 12, 24, and 48 h post-dose on Cycle 1, Day 1, and pre-dose on Cycle 2, Day 1. Plasma concentrations of FN-1501 and its metabolite M3 were analyzed at KCAS in Shawnee, KS, using a validated liquid chromatography/tandem mass spectrometry method. Primary pharmacokinetic (PK) endpoints were derived from FN-1501 and M3 concentration–time profiles and were analyzed using standard noncompartmental methods of analysis (Phoenix version 8).

MOLM-13 xenograft = conditions: preclinical, no reference given; cited from earlier work
[2] = preclinical, no reference given, cited from earlier work
MOLM-13 = tested on: MOLM-13; set-up: method as in data on file, Fosun Pharma; conditions: ref data on file, Fosun Pharma; cited from earlier work

For `CN1CCN(Cc2ccc(NC(=O)c3[nH]ncc3Nc3ncnc4[nH]ccc34)cc2)CC1` [FN-1501], the AUClast ([1]; 54 mg IV) was 773 ± 180 ng·h/mL, the “AUC∞” value ([1]; 54 mg IV) was 868 ± 181 ng·h/mL and the CL ([1]; 54 mg IV) was 63.9 ± 12.4 L/h. The Cmax ([1]; 54 mg IV) was 323 ± 55.6 ng/mL, the “MRT∞” value ([1]; 54 mg IV) was 16.9 ± 7.34 h and the Vss ([1]; 54 mg IV) was 1080 ± 516 L. It also gave a Vz ([1]; 54 mg IV) of 1820 ± 740 L, a t1/2 ([1]; 54 mg IV) of 19.6 ± 6.44 h and a tmax ([1]; 54 mg IV) of 1.1 ± 0.05 h. For the same compound, the AUClast ([1]; 72 mg IV) was 742 ± 275 ng·h/mL, the “AUC∞” value ([1]; 72 mg IV) was 823 ± 292 ng·h/mL and the CL ([1]; 72 mg IV) was 94.2 ± 28.8 L/h. The Cmax ([1]; 72 mg IV) was 161 ± 67.7 ng/mL, the “MRT∞” value ([1]; 72 mg IV) was 16.8 ± 1.12 h and the Vss ([1]; 72 mg IV) was 1580 ± 489 L. For the same compound, the Vz ([1]; 72 mg IV) was 2370 ± 833 L, the t1/2 ([1]; 72 mg IV) was 17.2 ± 1.58 h and the tmax ([1]; 72 mg IV) was 1.3 ± 0.24 h. For the same compound, the AUClast ([1]; 96 mg IV) was 1420 ± 236 ng·h/mL, the “AUC∞” value ([1]; 96 mg IV) was 1650 ± 229 ng·h/mL and the CL ([1]; 96 mg IV) was 59.1 ± 8.20 L/h. For the same compound, the Cmax ([1]; 96 mg IV) was 494 ± 289 ng/mL, the “MRT∞” value ([1]; 96 mg IV) was 15.4 ± 6.58 h and the Vss ([1]; 96 mg IV) was 921 ± 425 L. The Vz ([1]; 96 mg IV) was 1410 ± 682 L, the t1/2 ([1]; 96 mg IV) was 16.1 ± 6.28 h and the tmax ([1]; 96 mg IV) was 1.1 ± 0.13 h. The AUClast ([1]; 128 mg IV) was 1730 ± 850 ng·h/mL, the “AUC∞” value ([1]; 128 mg IV) was 1980 ± 1120 ng·h/mL and the CL ([1]; 128 mg IV) was 79.9 ± 4.21 L/h. For the same compound, the Cmax ([1]; 128 mg IV) was 533 ± 344 ng/mL, the “MRT∞” value ([1]; 128 mg IV) was 18.1 ± 5.53 h and the Vss ([1]; 128 mg IV) was 1320 ± 473 L. For the same compound, the Vz ([1]; 128 mg IV) was 1790 ± 366 L, the t1/2 ([1]; 128 mg IV) was 17.8 ± 7.00 h and the tmax ([1]; 128 mg IV) was 1.1 ± 0.11 h. The AUClast ([1]; 170 mg IV) was 3340 ± 1500 ng·h/mL, the “AUC∞” value ([1]; 170 mg IV) was 3760 ± 1980 ng·h/mL and the CL ([1]; 170 mg IV) was 56.5 ± 31.5 L/h. The Cmax ([1]; 170 mg IV) was 955 ± 330 ng/mL, the “MRT∞” value ([1]; 170 mg IV) was 15.8 ± 7.89 h and the Vss ([1]; 170 mg IV) was 757 ± 218 L. For the same compound, the Vz ([1]; 170 mg IV) was 1120 ± 419 L, the t1/2 ([1]; 170 mg IV) was 15.0 ± 3.64 h and the tmax ([1]; 170 mg IV) was 1.3 ± 0.26 h. The Clearance ([1]; 170 mg) was 50 L/h, the AUClast ([1]; 226 mg IV) was 5620 ± 1390 ng·h/mL and the “AUC∞” value ([1]; 226 mg IV) was 6070 ± 1670 ng·h/mL. The CL ([1]; 226 mg IV) was 39.4 ± 0.17 L/h, the Cmax ([1]; 226 mg IV) was 1180 ± 232 ng/mL and the “MRT∞” value ([1]; 226 mg IV) was 15.2 ± 3.92 h. For the same compound, the Vss ([1]; 226 mg IV) was 569 ± 30.8 L, the Vz ([1]; 226 mg IV) was 787 ± 139 L and the t1/2 ([1]; 226 mg IV) was 14.2 ± 2.2 h. The tmax ([1]; 226 mg IV) was 1.2 ± 0.02 h, the Clearance ([1]; 226 mg) was 38 L/h and the “Css,u” value ([1]; 48 h dosing interval) was 37 ng/mL. The “Css,u” value ([1]; 72 h dosing interval) was 25 ng/mL, the “AUC increase with dose” value ([1]; 2.5 to 226 mg) was “greater than dose-proportional” and the “Cmax increase with dose” value ([1]; 2.5 to 226 mg) was “roughly dose-proportional”. The “Drug concentration at end of dosing interval” value ([1]; 48 h post-dose) was “approximately 20 ng/mL”, the “Dose at which tumor growth reached stasis” value (MOLM-13 xenograft) was 20 mg/kg and the “Css,u in mice” value ([2]; 5 mg) was “roughly 5 ng/mL”. For the same compound, the “Css,u in mice” value ([2]; 20 mg) was about 50 ng/mL and the IC50 (MOLM-13) was 5.2 ng/mL (≈ 0.0121 µM).

— publication PMC10177510, “A Multicenter, Open-Label, Phase I/II Study of FN-1501 in Patients with Advanced Solid Tumors” (Cancers, 2023)
